Source: paper PMC11110727, “Exploiting thiol-functionalized benzosiloxaboroles for achieving diverse substitution patterns – synthesis, characterization and biological evaluation of promising antibacterial agents” (RSC Medicinal Chemistry, 2024)

Target: T1, S. aureus MRSA LeuRS (Staphylococcus aureus, UniProt P67513)
T1 construct: The LeuRS gene from MRSA (PW-71) was amplified by PCR; made in house; host or cells: E. coli BL21(DE3)pLys
Test: In vitro aminoacylation (enzyme inhibition) assay
Type: biochemical
Experimental: We have undertaken research devoted to determining the most probable mechanism of antibacterial action. […] Considering structural similarity to benzoxaboroles we assumed that benzosiloxaboroles are active through this mechanism. Our working hypothesis was supported by the fact that benzosiloxaboroles are rather bacteriostatic than bactericidal,[26,27] which is consistent with the specificity of the OBORT mechanism. The enzyme inhibition assay was performed for compound 20 as it features high activity against S. aureus MRSA strains and the respective favorable SI = 19.5 (Table 5). […] We obtained S. aureus MRSA LeuRS in the E. coli expression system. From 400 mL culture, approximately 20 mg of 6× His tagged LeuRS (with a molecular mass of 92.3 kDa) was purified to more than 90% homogeneity, which was confirmed by sodium dodecylsulfate-polyacrylamide gel electrophoresis (SDS-PAGE; Fig. S2, ESI ^†). Next, we used an in vitro aminoacylation assay to investigate the ability of 20 to inhibit S. aureus MRSA LeuRS activity consistent with affecting the transfer of the ^14C-radiolabeled leucine to a total tRNA. […] (residual activity 30.8% at 25 μM).
The LeuRS gene from MRSA (PW-71) was amplified by PCR using the following primers: 5′-[…]-3′ and 5′-[…]-3′. The amplified leuRS was digested with BamHI and NotI and ligated into pETDuet-1 vector (Novagen) which carries an N-terminal His tag. After sequencing, the pETDuet1-leuRS plasmid was transformed into E. coli BL21(DE3)pLys cells, which were then grown overnight in 20 mL of Luria–Bertani (LB) medium containing 100 μg mL^−1 ampicillin and 30 μg mL^−1 chloramphenicol. Then the overnight culture was inoculated into 400 mL of Super Broth medium containing ampicillin and chloramphenicol at the same concentration, and the cells were grown until the OD600 reached 0.6. […] The protein concentration in the final solution was 2.86 mg mL^−1 (determined by the Bradford method and bovine serum albumin as a standard).[78] […]

T1 sequence (P67513 whole entry): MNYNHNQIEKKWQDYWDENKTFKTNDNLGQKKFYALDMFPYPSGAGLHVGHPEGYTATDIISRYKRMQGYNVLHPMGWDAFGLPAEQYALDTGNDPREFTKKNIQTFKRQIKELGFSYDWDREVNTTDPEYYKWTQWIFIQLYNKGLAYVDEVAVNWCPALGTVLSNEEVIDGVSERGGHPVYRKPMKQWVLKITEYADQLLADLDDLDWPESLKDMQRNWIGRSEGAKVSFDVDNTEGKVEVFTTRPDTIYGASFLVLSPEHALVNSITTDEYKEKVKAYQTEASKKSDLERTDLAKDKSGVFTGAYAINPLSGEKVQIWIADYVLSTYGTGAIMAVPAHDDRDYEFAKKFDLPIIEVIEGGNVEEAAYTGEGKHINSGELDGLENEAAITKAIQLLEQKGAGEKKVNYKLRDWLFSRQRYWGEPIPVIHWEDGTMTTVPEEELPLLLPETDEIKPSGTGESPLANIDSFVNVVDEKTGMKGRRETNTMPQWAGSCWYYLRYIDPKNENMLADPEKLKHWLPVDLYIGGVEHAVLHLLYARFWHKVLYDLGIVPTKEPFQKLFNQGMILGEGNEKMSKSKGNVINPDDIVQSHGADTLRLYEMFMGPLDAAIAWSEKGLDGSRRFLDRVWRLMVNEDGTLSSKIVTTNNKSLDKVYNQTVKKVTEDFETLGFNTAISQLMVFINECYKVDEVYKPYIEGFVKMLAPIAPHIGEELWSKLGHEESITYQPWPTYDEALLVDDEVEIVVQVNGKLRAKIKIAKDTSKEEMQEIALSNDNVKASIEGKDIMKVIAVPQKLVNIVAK

With `C[Si]1(C)OB(O)c2cc(F)c(SCCS(=O)(=O)c3ccccc3)c(F)c21` [Compound 20, 5,7-Difluoro-1,1-dimethyl-6-((2-(phenylsulfonyl)ethyl)thio)benzo[c][1,2,5]oxasilaborol-3(1H)-ol] as the molecule, how does the IC50 read?
Its IC50 is greater than 200 µM.

What about the remaining activity at 25 µM (read-out: residual activity of S. aureus MRSA LeuRS) of the same molecule?
Its remaining activity at 25 µM is 92.9%.
